# According to US20070072912A1, “Alicyclic-amine-substituted 4-carboxamido-benzimidazoles as parp-inhibitors and antioxidants” (Cedars-Sinai Medical Center, priority 2003, published 2007):
# Structures can show the parent of a compound that is named as a salt.
# Biological target: T1, Poly-ADP-ribose polymerase (PARP enzyme) (Rattus norvegicus, UniProt P27008)
# T1 construct: Poly-ADP-ribose polymerase was isolated from rat liver; from tissue; host or cells: rat liver
# Test: Inhibitory effect of benzimidazole derivatives on PARP enzyme in vitro ([3H]NAD+ incorporation)
# Format: biochemical
# Conditions: not given
# Procedure: Assay to test inhibitory effects of benzimidazole derivatives on PARP enzyme in vitro.
# The potential inhibitory effect of benzimidazole derivatives were tested in this assay system. The PARP activity was determined in 130 μl reaction mixture contained 100 mM Tris-HCl buffer, pH 8.0, 10 mM MgCl2, 10% glycerol, 1.5 mM DTT, 1 mM [Adenine-2,8-^3H] NAD^+ (4.500 cpm/nmol), 10 μg activated DNA and 10 μg histones. The incubation time was 15 minutes, and the reaction was stopped by addition of trichloro-acetic acid (8%). After addition of 0.5 mg albumine, precipitation was allowed to proceed for at least 20 minutes on ice, and the insoluble material was collected on a glass filter washed with 5% perchloric acid. The protein-bound radio-activity was determined by a LS-200 Beckman scintillation counter.
# T1 sequence (P27008 whole entry): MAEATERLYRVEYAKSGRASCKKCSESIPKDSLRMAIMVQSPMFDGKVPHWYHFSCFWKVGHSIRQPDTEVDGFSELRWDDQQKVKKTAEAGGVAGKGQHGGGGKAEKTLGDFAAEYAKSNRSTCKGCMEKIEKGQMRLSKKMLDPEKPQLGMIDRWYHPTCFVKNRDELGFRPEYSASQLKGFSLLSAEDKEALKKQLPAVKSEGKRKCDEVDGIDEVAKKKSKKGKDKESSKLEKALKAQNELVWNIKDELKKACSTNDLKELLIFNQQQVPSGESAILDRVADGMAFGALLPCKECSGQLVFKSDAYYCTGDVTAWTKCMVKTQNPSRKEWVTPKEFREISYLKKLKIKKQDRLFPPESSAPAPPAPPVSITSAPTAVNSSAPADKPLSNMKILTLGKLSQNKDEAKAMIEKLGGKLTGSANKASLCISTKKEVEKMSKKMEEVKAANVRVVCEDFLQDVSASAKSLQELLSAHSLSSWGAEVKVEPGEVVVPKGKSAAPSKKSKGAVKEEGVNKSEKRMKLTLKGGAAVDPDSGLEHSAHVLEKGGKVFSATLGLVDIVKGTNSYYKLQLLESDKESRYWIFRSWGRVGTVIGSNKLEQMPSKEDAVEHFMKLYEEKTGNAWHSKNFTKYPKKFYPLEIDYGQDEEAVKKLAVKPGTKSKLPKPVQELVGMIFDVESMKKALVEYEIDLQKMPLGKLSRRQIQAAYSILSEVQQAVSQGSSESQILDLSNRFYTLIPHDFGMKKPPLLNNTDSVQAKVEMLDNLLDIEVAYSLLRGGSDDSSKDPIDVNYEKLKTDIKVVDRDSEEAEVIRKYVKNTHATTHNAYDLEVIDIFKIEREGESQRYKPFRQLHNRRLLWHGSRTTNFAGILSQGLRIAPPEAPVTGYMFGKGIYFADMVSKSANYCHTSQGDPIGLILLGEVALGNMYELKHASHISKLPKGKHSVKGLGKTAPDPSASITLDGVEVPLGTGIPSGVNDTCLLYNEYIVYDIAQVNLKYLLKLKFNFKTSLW
row,SMILES,IC50
1,"COc1cc(-c2nc3c(C(N)=O)cccc3[nH]2)ccc1OCC1=CC(C)(C)N([O])C1(C)C [Compound 22, 2-[3-methoxy-4-(1-oxyl-2,2,5,5-tetramethyl-2,5-dihydro-1H-pyrrol-3-yl-methoxy)-phenyl]-1H-benzimidazole 4-carboxylic acid amide radical]",472 nM
2,"CC1(C)C=C(c2nc3c(C(N)=O)cccc3[nH]2)C(C)(C)N1[O] [Compound 1, 2-(1-oxyl-2,2,5,5-tetramethyl-2,5-dihydro-1H-pyrrol-3-yl)-1H-benzimidazole 4-carboxylic acid amide radical]",721 nM
3,"CC1(C)NC(C)(C)c2sc(-c3nc4c(C(N)=O)cccc4[nH]3)cc21 [Compound 25, 2-(4,4,6,6-tetramethyl-4,6-dihydro-5H-thieno[2,3-c]pyrrol-2-yl)-1H-benzimidazole 4-carboxylic acid amide]",354 nM
4,"CC1(C)C(Br)=C(c2nc3c(C(N)=O)cccc3[nH]2)C(C)(C)N1[O] [Compound 5, 2-(4-bromo-1-oxyl-2,2,5,5-tetramethyl-2,5-dihydro-1H-pyrrol-3-yl)-1H-benzimidazole 4-carboxylic acid amide radical]",201 nM
5,"CN1C(C)(C)C=C(c2nc3c(C(N)=O)cccc3[nH]2)C1(C)C [Compound 13, 2-(1,2,2,5,5-pentamethyl-2,5-dihydro-1H-pyrrol-3-yl)-1H-benzimidazole 4-carboxylic acid amide]",42 nM
6,"CC1(C)NC(C)(C)C(c2nc3c(C(N)=O)cccc3[nH]2)=C1c1cccc(C(F)(F)F)c1 [Compound 10, 2-[2,2,5,5-tetramethyl-4-(3-trifluoromethyl-phenyl)-2,5-dihydro-1H-pyrrol-3-yl]-1H-benzimidazole 4-carboxylic acid amide]",133 nM
7,"CC1(C)c2cc(-c3nc4c(C(N)=O)cccc4[nH]3)sc2C(C)(C)N1[O] [Compound 24, 2-(5-oxyl-4,4,6,6-tetramethyl-4,6-dihydro-5H-thieno[2,3-c]pyrrol-2-yl)-1H-benzimidazole 4-carboxylic acid amide radical]",3400 nM
8,"CC1(C)C(c2ccccc2)=C(c2nc3c(C(N)=O)cccc3[nH]2)C(C)(C)N1[O] [Compound 7, 2-(1-oxyl-4-phenyl-2,2,5,5-tetramethyl-2,5-dihydro-1H-pyrrol-3-yl)-1H-benzimidazole 4-carboxylic acid amide radical]",1500 nM
9,"CC1(C)C=C(c2nc3c(C(N)=O)cccc3[nH]2)CC(C)(C)N1 [Compound 19, 2-(2,2,6,6-tetramethyl-1,2,3,6-tetrahydro-pyridin-4-yl)-1H-benzimidazole 4-carboxylic acid amide]",14 nM
10,"CC1(C)C(c2cccc(C(F)(F)F)c2)=C(c2nc3c(C(N)=O)cccc3[nH]2)C(C)(C)N1[O] [Compound 9, 2-[1-oxyl-2,2,5,5-tetramethyl-4-(3-trifluoromethyl-phenyl)-2,5-dihydro-1H-pyrrol-3-yl]-1H-benzimidazole 4-carboxylic acid amide radical]",149 nM
11,CC1(C)C(c2nc3c(C(N)=O)cccc3[nH]2)=C(c2cccc3c2oc2ccccc23)C(C)(C)N1[O] [Compound 16],1800 nM
12,"CC1(C)C=C(COc2ccc(-c3nc4c(C(N)=O)cccc4[nH]3)cc2)C(C)(C)N1[O] [Compound 20, 2-[4-(1-oxyl-2,2,5,5-tetramethyl-2,5-dihydro-1H-pyrrol-3-yl-methoxy)-phenyl]-1H-benzimidazole 4-carboxylic acid amide radical]",564 nM
13,"CC1(C)C=C(c2ccc(-c3nc4c(C(N)=O)cccc4[nH]3)cc2)C(C)(C)N1[O] [Compound 11, 2-[4-(1-oxyl-2,2,5,5-tetramethyl-2,5-dihydro-1H-pyrrol-3-yl)-phenyl]-1H-benzimidazole 4-carboxylic acid amide radical]",78 nM
14,"COc1cc(-c2nc3c(C(N)=O)cccc3[nH]2)ccc1OCC1=CC(C)(C)NC1(C)C [Compound 23, 2-[3-methoxy-4-(2,2,5,5-tetramethyl-2,5-dihydro-1H-pyrrol-3-yl-methoxy)-phenyl]-1H-benzimidazole 4-carboxylic acid amide]",432 nM

# Same assay, conditions: PARP isolated from rat liver, 1 mM [3H]NAD+, 15 min incubation; read-out: PARP IC50
row,SMILES,IC50
1,"CC1(C)C=C(c2nc3c(C(N)=O)cccc3[nH]2)CC(C)(C)N1O [Compound 18, (1-hydroxy-2,2,6,6-tetramethyl-1,2,3,6-tetrahydro-pyridin-4-yl)-1H-benzimidazole 4-carboxylic acid amide]",26 nM
2,"CC1(C)C=C(COc2ccc(-c3nc4c(C(N)=O)cccc4[nH]3)cc2)C(C)(C)N1 [Compound 21, 2-[4-(2,2,5,5-tetramethyl-2,5-dihydro-1H-pyrrol-3-yl-methoxy)-phenyl]-1H-benzimidazole 4-carboxylic acid amide]",572 nM
3,CC1(C)NC(C)(C)C(c2cccc3c2oc2ccccc23)=C1c1nc2c(C(N)=O)cccc2[nH]1 [Compound 17],8200 nM
4,"CC1(C)NC(C)(C)C(c2nc3c(C(N)=O)cccc3[nH]2)=C1c1ccccc1 [Compound 8, 2-(4-phenyl-2,2,5,5-tetramethyl-2,5-dihydro-1H-pyrrol-3-yl)-1H-benzimidazole 4-carboxylic acid amide]",310 nM
5,"COC(=O)C1C(c2nc3c(C(N)=O)cccc3[nH]2)C(C)(C)NC1(C)C (centres unmarked) [Compound 4, 4-(4-carbamoyl-1H-benzimidazol-2-yl)-2,2,5,5-tetramethyl-pyrrolidine-3-carboxylic acid methyl ester]",216 nM

# The remaining lines, values ahead:
row,IC50,SMILES
1,98 nM,"CC1(C)C=C(c2ccc(-c3nc4c(C(N)=O)cccc4[nH]3)cc2)C(C)(C)N1 [Compound 12, 2-[4-(2,2,5,5-tetramethyl-2,5-dihydro-1H-pyrrol-3-yl)-phenyl]-1H-benzimidazole 4-carboxylic acid amide]"
2,345 nM,"CC1(C)C=C(c2nc3c(C(N)=O)cccc3[nH]2)C(C)(C)N1 [Compound 2, 2-(2,2,5,5-tetramethyl-2,5-dihydro-1H-pyrrol-3-yl)-1H-benzimidazole 4-carboxylic acid amide]"
3,61 nM,"CON1C(C)(C)C=C(c2nc3c(C(N)=O)cccc3[nH]2)C1(C)C [Compound 15, 2-(1-methoxy-2,2,5,5-tetramethyl-2,5-dihydro-1H-pyrrol-3-yl)-1H-benzimidazole 4-carboxylic acid amide]"
4,49 nM,"CC(=O)N1C(C)(C)C=C(c2nc3c(C(N)=O)cccc3[nH]2)C1(C)C [Compound 14, 2-(1-acetyl-2,2,5,5-tetramethyl-2,5-dihydro-1H-pyrrol-3-yl)-1H-benzimidazole 4-carboxylic acid amide]"
5,137 nM,"CC1(C)NC(C)(C)C(c2nc3c(C(N)=O)cccc3[nH]2)=C1Br [Compound 6, 2-(4-bromo-2,2,5,5-tetramethyl-2,5-dihydro-1H-pyrrol-3-yl)-1H-benzimidazole 4-carboxylic acid amide]"

# Tested on: not given
# Test: not given
# Conditions: not given
row,melting point,SMILES
1,209 to 211 °C,"CC1(C)C=C(CSc2nc3c(C(N)=O)cccc3[nH]2)C(C)(C)N1 (as salt: HCl) [Compound 27, 2-(2,2,5,5-tetramethyl-2,5-dihydro-1H-pyrrol-3-yl-methyl-sulphanyl)-1H-benzimidazole 4-carboxylic acid amide]"
2,245 to 246 °C,"CC1(C)C=C(CSc2nc3c(C(N)=O)cccc3[nH]2)CC(C)(C)N1 [Compound 29, 2-(2,2,6,6-tetramethyl-1,2,3,6-tetrahydro-pyridin-4-yl-methylsulphanyl)-1H-benzimidazole 4-carboxylic acid amide]"
